This is an account of results in ChEMBL document CHEMBL1128127, “The design of potent and stable benzisothiazolone inhibitors of human leukocyte elastase” (Bioorg Med Chem Lett, 1995).

pKi: −log10 of the molar value.

In series [1] the target is T1, Neutrophil elastase (Homo sapiens) (UniProt P08246).
T1 sequence (whole entry): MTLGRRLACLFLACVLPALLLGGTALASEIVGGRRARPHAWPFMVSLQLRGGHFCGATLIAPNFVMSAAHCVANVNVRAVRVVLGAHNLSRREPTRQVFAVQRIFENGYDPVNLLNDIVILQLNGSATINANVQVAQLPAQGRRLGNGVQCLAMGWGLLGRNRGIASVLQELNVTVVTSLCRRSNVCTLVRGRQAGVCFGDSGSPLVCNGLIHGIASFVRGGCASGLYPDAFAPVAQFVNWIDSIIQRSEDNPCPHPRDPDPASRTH
Description: (§1) Evaluated for inhibitory activity against Human leukocyte elastase (HLE)

Series [2] deals with T1, Neutrophil elastase (Homo sapiens). The source holds these as a separate data set.
Description: as §1
A further series can be described thus: in vitro. Particulars: human, blood.
For a further series, the target named is T2, Neutrophil elastase (Homo sapiens, UniProt P08246).
T2 sequence (P08246 whole entry): T1 sequence (whole entry)

Series [3] in a line: Half-life was determined; 88% of parent remained after incubation for 120 min (human blood stability). Type of series: ADME, tissue-based.

Description for in vitro: Half-life (human blood stability)

In series [1], `CC(C)c1cccc2c1C(=O)N(COC(=O)c1c(Cl)cccc1Cl)S2(=O)=O` came in with a k off of 2.7e-05 s⁻¹. In series [2], this molecule returned a k on of 900000 M⁻¹ s⁻¹. In “in vitro”, this molecule showed a half-life of 30 min.
In “in vitro”, `CC(C)c1cccc2c1C(=O)N(CSc1nnnn1-c1ccccc1)S2(=O)=O` had a half-life of 45 min.
Regarding `CCC(C)c1cccc2c1C(=O)N(CSc1nnnn1-c1ccccc1)S2(=O)=O` (stereo unspecified), the half-life in the series “in vitro” is 58 min.
In turn, `O=C1c2ccccc2S(=O)(=O)N1CSc1nnnn1-c1ccccc1` displayed a half-life in “in vitro” of under 5 min.
`CCc1cccc2c1C(=O)N(CSc1nnnn1-c1ccccc1)S2(=O)=O` showed a half-life in “in vitro” of 54 min.
Still for that read-out and setting: under `CCC(CC)c1cccc2c1C(=O)N(CSc1nnnn1-c1ccccc1)S2(=O)=O` stands 100 min.
As for `CCCc1c(OC)c(OC)cc2c1C(=O)N(CSc1nnnn1-c1ccccc1)S2(=O)=O`, the pKi at Neutrophil elastase is 9.70. This molecule gave a k off in series [1] of 4.7e-05 s⁻¹. The same molecule registered a k on in series [2] of 240000 M⁻¹ s⁻¹. In “in vitro”, the half-life came out at 37 min.
In the case of `CC(C)c1cc(N(C)C)cc2c1C(=O)N(COC(=O)c1c(Cl)cccc1Cl)S2(=O)=O`, the negative logarithm of the Ki (pKi) on Neutrophil elastase is 8.66. The k off in series [1] amounted to 2.7e-05 s⁻¹. Also, in series [2], the k on was 12300 M⁻¹ s⁻¹.
In the case of `CC(C)(C)c1cccc2c1C(=O)N(CSc1nnnn1-c1ccccc1)S2(=O)=O`, in series [3], the half-life was over 120 min. On Neutrophil elastase, this molecule had a negative-log Ki (pKi) of under 5.70.
`COc1cc2c(c(C(C)C)c1OC)C(=O)N(CSc1nnnn1-c1ccccc1)S2(=O)=O` showed a negative logarithm of the Ki (pKi) at Neutrophil elastase of 8.28. In series [1], this molecule had a k off of 6.1e-05 s⁻¹. This molecule also displayed a k on in series [2] of 11800 M⁻¹ s⁻¹. Further, the half-life in “in vitro” was found to be 65 min.
The molecule `COc1cc(C(C)C)c2c(c1)S(=O)(=O)N(COC(=O)c1c(Cl)cccc1Cl)C2=O` returned a half-life in the series “in vitro” of 140 min.
As for `CC(C)c1cc(N2CCN(C)CC2)cc2c1C(=O)N(COC(=O)c1c(Cl)cccc1Cl)S2(=O)=O`, the pKi on Neutrophil elastase is 8.96. Also, the k off in series [1] came to 2.4e-05 s⁻¹. In series [2], this molecule displayed a k on of 21500 M⁻¹ s⁻¹. The half-life in the series “in vitro” worked out at 110 min.
Regarding `CC(C)c1cc(F)cc2c1C(=O)N(COC(=O)c1c(Cl)cccc1Cl)S2(=O)=O`, the negative-log Ki (pKi) at Neutrophil elastase was 10.52. In addition, the k off in series [1] was determined as 3e-05 s⁻¹. Moreover, the k on in series [2] worked out at 1e+06 M⁻¹ s⁻¹. For the same molecule, the half-life in “in vitro” is under 15 min.
In turn, `CCCc1cccc2c1C(=O)N(CSc1nnnn1-c1ccccc1)S2(=O)=O` came in with a half-life in the series “in vitro” of 55 min.

In general, half-life refers to the time in which the quantity being followed falls by half. As a reminder, the pKi is the Ki on a negative log10 scale, so that one unit is a factor of ten.
